Measured values from patent publication US7943318B2, “Microrna-based methods and compositions for the diagnosis, prognosis and treatment of lung cancer” (The Ohio State University Research Foundation, priority 2006, dated 2011).

Columns and labels:
[1] = test system: miRNA expression in A549 and NCI-H157 lung cancer cells; assay: miRNA microarray after treatment with 5-aza-dC and/or TSA; type: cell-based, human; details: 1.0 μM, triplicate
Procedure: Microarray analysis was performed as previously described (Liu, C. G., et al., Proc. Natl. Acad. Sci. U.S.A. 101:9740-9744 (2004)). Briefly, 5 μg of total RNA was hybridized with miRNA microarray chips containing 352 probes in triplicate. Specifically, these chips contain gene-specific 40-mer oligonucleotide probes, spotted by contacting technologies and covalently attached to a polymeric matrix, which were generated from 161 human miRNAs, 84 mouse miRNAs, miRNAs from three other species and tRNA. The microarrays were hybridized in 6×SSPE (0.9 M NaCl/60 mM NaH2PO4.H2O/8 mM EDTA, pH 7.4)/30% formamide at 25° C. for 18 hr, washed in 0.75×TNT (Tris.HCl/NaCl/Tween 20) at 37° C. for 40 min, and processed using a method of direct detection of biotin-containing transcripts by streptavidin-Alexa647 conjugate (Molecular Probes, Carlsbad, Calif.). Processed slides were scanned using a PerkinElmer ScanArray XL5K Scanner, with the laser set to 635 nm, at Power 80 and PMT 70 setting, and a scan resolution of 10 μm. An average value of the three spot replicates for each miRNA was normalized and analyzed in BRB-ArrayTools version 3.2.3. After excluding negative values with hybridization intensity below background, normalization was performed by using a per chip on median normalization method and normalization to median array as reference. […]

[2] = test system: MYO18B mRNA in lung cancer cell lines (H157, A549); assay: MYO18B mRNA expression after treatment with 5-aza-dC and/or TSA, RT-PCR analysis; type: cell-based, human; details: 1.0 μM, FIG. 12
Procedure: FIG. 12 depicts the expression of MYO18B mRNA after treatment with 5-aza-dC and/or TSA in two lung cancer cell lines (H157, A549), as determined by RT-PCR analysis. Lane 1, no treatment; lane 2, treatment with 1.0 μM 5-aza-dC for 72 hr; lane 3, treatment with 1.0 μM TSA for 24 hr; lane 4, treatment with 1.0 μM 5-aza-dC for 72 hours, followed by treatment with 1.0 μM TSA for 24 hr. GAPDH expression served as a loading control.
A549 and NCI-H157 lung cancer cells (available from the American Tissue Culture Collection) were incubated with medium containing 1.0 μM 5-aza-dC (Sigma, St. Louis, Mo.) for 48 hr, then were incubated for an additional 24 hr in the presence of 1.0 μM TSA (Sigma, St. Louis, Mo.). Total RNA was isolated with TRIzol® Reagent (Invitrogen), and microarray analysis was performed as described above. Each treatment was performed in triplicate.
miRNA microarrays were used to analyze the expression of various miRNAs upon treatment with 5-aza-2′-deoxycytidine (5-aza-dC), a DNA methylation inhibitor, and/or Trichostatin A (TSA), a potent histone deacteylase inhibitor, in two lung cancer cell lines (A549 and NCI-H157).

SMILES | changes in miRNA expression on microarray after treatment [1] | expression of MYO18B (transcriptionally-silenced gene) following treatment [2]
Nc1ncn([C@H]2C[C@H](O)[C@@H](CO)O2)c(=O)n1 [5-aza-dC, 5-aza-2′-deoxycytidine] | no miRNAs from the microarray displayed statistically-significant changes in expression | increased expression
CC(/C=C/C(=O)NO)=C\[C@@H](C)C(=O)c1ccc(N(C)C)cc1 [TSA, Trichostatin A] | no miRNAs from the microarray displayed statistically-significant changes in expression | increased expression
